Experimental data published in patent publication US12331040B2 (Karyopharm Therapeutics Inc., priority 2013, dated 2025).
pIC50: −log10 of the molar value. Read-outs that look alike come from different tables or passages of the source.

Experiments:
Experiment in all cases: MTT cell proliferation assay
Assay type in all cases: cell-based
Z138 cells = conditions: Homo sapiens, Z-138, Z138 cells, approximately 64-72 hours incubation
Outline: (§1)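 5,000-10,000 cells/well, overnight attach; 8 conc., 1 nM–30 μM; MTT ~4 h; formazan solubilized, OD 490 nm; % inhibition = (1−(ODo/OD))×100 vs neg. control; mostly duplicate, mean±SE.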

3T3 cells = conditions: Mus musculus, NIH3T3, approximately 64-72 hours incubation
Outline: as §1

MS751 cells = conditions: Homo sapiens, MS751, MS751 cells, approximately 64-72 hours incubation
Outline: as §1

[1] = read-out: MTT Assay IC50 MS-751
[2] = read-out: MTT Assay IC50, Z-138
[3] = read-out: MTT Assay IC50, MS-751

In the case of Nc1ccc(/C=C/C(=O)NCc2cc3cc(-c4ccc(C(=O)N5CC[C@H](F)C5)cn4)cc(C(F)(F)F)c3o2)cn1 [Compound 570, (S,E)-3-(6-aminopyridin-3-yl)-N-((5-(5-(3-fluoropyrrolidine-1-carbonyl)pyridin-2-yl)-7-(trifluoromethyl)benzofuran-2-yl)methyl)acrylamide], the pIC50 (Z138 cells; read-out: MTT Assay IC50 Z-138) was > 7.00, the pIC50 (3T3 cells; read-out: MTT Assay IC50 3T3) was < 5.00 and the pIC50 (MS751 cells; [1]) was 5.30 to 7.00.

In the case of Nc1ccc(/C=C/C(=O)NCc2cc3cc(-c4ccc(C(=O)N5CC6CCC(C5)O6)cn4)cc(C(F)(F)F)c3o2)cn1 [Compound 632, (E)-N-((5-(5-(8-oxa-3-azabicyclo[3.2.1]octane-3-carbonyl)pyridin-2-yl)-7-(trifluoromethyl)benzofuran-2-yl)methyl)-3-(6-aminopyridin-3-yl)acrylamide], the pIC50 (Z138 cells; read-out: MTT Assay IC50 Z-138) was 5.30 to 7.00, the pIC50 (3T3 cells; read-out: MTT Assay IC50 3T3) was < 5.00 and the pIC50 (MS751 cells; [1]) was 5.30 to 7.00.

For Nc1ccc(/C=C/C(=O)NCc2cc3cc(-c4ccc(C(=O)N5CC[C@H](Cl)C5)cn4)cc(C(F)(F)F)c3o2)cn1 [Compound 618, (S,E)-3-(6-aminopyridin-3-yl)-N-((5-(5-(3-chloropyrrolidine-1-carbonyl)pyridin-2-yl)-7-(trifluoromethyl)benzofuran-2-yl)methyl)acrylamide], the pIC50 (Z138 cells; read-out: MTT Assay IC50 Z-138) was 5.30 to 7.00, the pIC50 (3T3 cells; read-out: MTT Assay IC50 3T3) was < 5.00 and the pIC50 (MS751 cells; [1]) was 5.30 to 7.00.

For C[C@H]1COCCN1C(=O)c1ccc(-c2cc(Cl)c3oc(CNC(=O)/C=C/c4ccc(N)nc4)cc3c2)cc1 [Compound 515, (S,E)-3-(6-aminopyridin-3-yl)-N-((7-chloro-5-(4-(3-methylmorpholine-4-carbonyl)phenyl)benzofuran-2-yl)methyl)acrylamide], the pIC50 (Z138 cells; read-out: MTT Assay IC50 Z-138) was 5.30 to 7.00, the pIC50 (3T3 cells; read-out: MTT Assay IC50 3T3) was < 5.00 and the pIC50 (MS751 cells; [1]) was 5.30 to 7.00.

Nc1ccc(/C=C/C(=O)NCc2cc3cc(-c4cnc(C(=O)N5CCOCC5)nc4)cc(Cl)c3o2)cn1 [Compound 546, (E)-3-(6-Aminopyridin-3-yl)-N-((7-chloro-5-(2-(morpholine-4-carbonyl)pyrimidin-5-yl)benzofuran-2-yl)methyl)acrylamide] was tested, and the pIC50 (Z138 cells; read-out: MTT Assay IC50 Z-138) was 5.30 to 7.00, the pIC50 (3T3 cells; read-out: MTT Assay IC50 3T3) was < 5.00 and the pIC50 (MS751 cells; [1]) was 5.30 to 7.00.

For Nc1ccc(/C=C/C(=O)NCc2cc3cc(-c4ccc(C(=O)N5CCC(F)(F)CC5)cc4)cc(-c4ccccn4)c3o2)cn1 [Compound 746, (E)-3-(6-aminopyridin-3-yl)-N-((5-(4-(4,4-difluoropiperidine-1-carbonyl)phenyl)-7-(pyridin-2-yl)benzofuran-2-yl)methyl)acrylamide], the pIC50 (Z138 cells; [2]) was > 7.00, the pIC50 (3T3 cells; read-out: MTT Assay IC50, 3T3) was 5.30 to 7.00 and the pIC50 (MS751 cells; [3]) was > 7.00.

With Nc1ccc(/C=C/C(=O)NCc2cc3cc(-c4ccc(C(=O)N5CCC(F)(F)CC5)cn4)cnc3o2)cn1 [Compound 658, (E)-3-(6-aminopyridin-3-yl)-N-((5-(5-(4,4-difluoropiperidine-1-carbonyl)pyridin-2-yl)furo[2,3-b]pyridin-2-yl)methyl)acrylamide] the pIC50 (Z138 cells; [2]) was 5.30 to 7.00, the pIC50 (3T3 cells; read-out: MTT Assay IC50, 3T3) was < 5.00 and the pIC50 (MS751 cells; [3]) was 5.30 to 7.00.

With Nc1ccc(/C=C/C(=O)NCc2cc3cc(-c4ccc(C(=O)N5CCOCC5)nn4)cc(Cl)c3o2)cn1 [Compound 552, (E)-3-(6-aminopyridin-3-yl)-N-((7-chloro-5-(6-(morpholine-4-carbonyl)pyridazin-3-yl)benzofuran-2-yl)methyl)acrylamide] the pIC50 (Z138 cells; read-out: MTT Assay IC50 Z-138) was 5.30 to 7.00, the pIC50 (3T3 cells; read-out: MTT Assay IC50 3T3) was < 5.00 and the pIC50 (MS751 cells; [1]) was 5.30 to 7.00.

With Nc1ccc(/C=C/C(=O)NCc2cc3cc(-c4ccc(C(=O)N5CCC(F)CC5)cc4)cc(Cl)c3o2)cn1 [Compound 598, (E)-3-(6-aminopyridin-3-yl)-N-((7-chloro-5-(4-(4-fluoropiperidine-1-carbonyl)phenyl)benzofuran-2-yl)methyl)acrylamide] the pIC50 (Z138 cells; read-out: MTT Assay IC50 Z-138) was 5.30 to 7.00, the pIC50 (3T3 cells; read-out: MTT Assay IC50 3T3) was < 5.00 and the pIC50 (MS751 cells; [1]) was 5.30 to 7.00.

In the case of CC1(F)CN(C(=O)c2ccc(-c3cc(Cl)c4oc(CNC(=O)/C=C/c5ccc(N)nc5)cc4c3)cc2)C1 [Compound 599, (E)-3-(6-aminopyridin-3-yl)-N-((7-chloro-5-(4-(3-fluoro-3-methylazetidine-1-carbonyl)phenyl)benzofuran-2-yl)methyl)acrylamide], the pIC50 (Z138 cells; read-out: MTT Assay IC50 Z-138) was 5.30 to 7.00, the pIC50 (3T3 cells; read-out: MTT Assay IC50 3T3) was 5.00 to 5.30 and the pIC50 (MS751 cells; [1]) was 5.30 to 7.00.

In the case of Nc1ccc(/C=C/C(=O)NCc2cc3cc(-c4ccc(C(=O)N5CCC(F)(F)CC5)cc4)cc(-c4ccc(F)c(Cl)c4)c3o2)cn1 [Compound 711, (E)-3-(6-aminopyridin-3-yl)-N-((7-(3-chloro-4-fluorophenyl)-5-(4-(4,4-difluoropiperidine-1-carbonyl)phenyl)benzofuran-2-yl)methyl)acrylamide], the pIC50 (Z138 cells; [2]) was > 7.00, the pIC50 (3T3 cells; read-out: MTT Assay IC50, 3T3) was 5.30 to 7.00 and the pIC50 (MS751 cells; [3]) was > 7.00.

With Nc1ccc(/C=C/C(=O)NCc2cc3cc(-c4ccc(C(=O)N5CC[C@H](Cl)C5)cc4)cc(C(F)(F)F)c3o2)cn1 [Compound 610, (S,E)-3-(6-aminopyridin-3-yl)-N-((5-(4-(3-chloropyrrolidine-1-carbonyl)phenyl)-7-(trifluoromethyl)benzofuran-2-yl)methyl)acrylamide] the pIC50 (Z138 cells; read-out: MTT Assay IC50 Z-138) was 5.30 to 7.00, the pIC50 (3T3 cells; read-out: MTT Assay IC50 3T3) was < 5.00 and the pIC50 (MS751 cells; [1]) was 5.30 to 7.00.

With CC1(F)CCN(C(=O)c2ccc(-c3cc(C(F)(F)F)c4oc(CNC(=O)/C=C/c5ccc(N)nc5)cc4c3)nc2)C1 (stereo not drawn) [Compound 617, (E)-3-(6-aminopyridin-3-yl)-N-((5-(5-(3-fluoro-3-methylpyrrolidine-1-carbonyl)pyridin-2-yl)-7-(trifluoromethyl)benzofuran-2-yl)methyl)acrylamide] the pIC50 (Z138 cells; read-out: MTT Assay IC50 Z-138) was > 7.00, the pIC50 (3T3 cells; read-out: MTT Assay IC50 3T3) was < 5.00 and the pIC50 (MS751 cells; [1]) was 5.30 to 7.00.

In the case of Nc1ccc(/C=C/C(=O)NCc2cc3cc(-c4cccc(C(=O)N5CCOCC5)c4)cc(Cl)c3o2)cn1 [Compound 543, (E)-3-(6-Aminopyridin-3-yl)-N-((7-chloro-5-(3-(morpholine-4-carbonyl)phenyl)benzofuran-2-yl)methyl)acrylamide], the pIC50 (Z138 cells; read-out: MTT Assay IC50 Z-138) was > 7.00, the pIC50 (3T3 cells; read-out: MTT Assay IC50 3T3) was 5.30 to 7.00 and the pIC50 (MS751 cells; [1]) was > 7.00.

With Nc1ccc(/C=C/C(=O)NCc2cc3cc(-c4ccc(C(=O)N5CC[C@@H](F)C5)cc4)cc(C(F)(F)F)c3o2)cn1 [Compound 522, (R,E)-3-(6-aminopyridin-3-yl)-N-((5-(4-(3-fluoropyrrolidine-1-carbonyl)phenyl)-7-(trifluoromethyl)benzofuran-2-yl)methyl)acrylamide] the pIC50 (Z138 cells; read-out: MTT Assay IC50 Z-138) was 5.30 to 7.00, the pIC50 (3T3 cells; read-out: MTT Assay IC50 3T3) was < 5.00 and the pIC50 (MS751 cells; [1]) was 5.30 to 7.00.

With O=C(/C=C/c1cccnc1)NCc1cc2cc(-c3ccc(C(=O)N4CCC(F)(F)CC4)cn3)cc(-c3cc4ccccc4o3)c2o1 [Compound 721, (E)-N-((5′-(5-(4,4-difluoropiperidine-1-carbonyl)pyridin-2-yl)-[2,7′-bibenzofuran]-2′-yl)methyl)-3-(pyridin-3-yl)acrylamide] the pIC50 (Z138 cells; [2]) was > 7.00, the pIC50 (3T3 cells; read-out: MTT Assay IC50, 3T3) was > 7.00 and the pIC50 (MS751 cells; [3]) was > 7.00.

In the case of Nc1ccc(/C=C/C(=O)NCc2cc3cc(-c4ccc(C(=O)N5CCC(F)(F)CC5)cc4F)cc(-c4cccc(F)c4)c3o2)cn1 [Compound 755, (E)-3-(6-aminopyridin-3-yl)-N-((5-(4-(4,4-difluoropiperidine-1-carbonyl)-2-fluorophenyl)-7-(3-fluorophenyl)benzofuran-2-yl)methyl)acrylamide], the pIC50 (Z138 cells; [2]) was > 7.00, the pIC50 (3T3 cells; read-out: MTT Assay IC50, 3T3) was 5.30 to 7.00 and the pIC50 (MS751 cells; [3]) was 5.30 to 7.00.

In the case of O=C(/C=C/c1cccnc1)NCc1cc2cc(-c3ccc(C(=O)N4CCC(F)(F)CC4)cc3)cc(-c3ccncc3)c2o1 [Compound 723, (E)-N-((5-(4-(4,4-difluoropiperidine-1-carbonyl)phenyl)-7-(pyridin-4-yl)benzofuran-2-yl)methyl)-3-(pyridin-3-yl)acrylamide], the pIC50 (Z138 cells; [2]) was > 7.00, the pIC50 (3T3 cells; read-out: MTT Assay IC50, 3T3) was > 7.00 and the pIC50 (MS751 cells; [3]) was > 7.00.

In the case of Nc1ccc(/C=C/C(=O)NCc2nc3cc(-c4ccc(C(=O)N5CCOCC5)cc4)cc(Cl)c3o2)cn1 [Compound 501, (E)-3-(6-aminopyridin-3-yl)-N-((7-chloro-5-(4-(morpholine-4-carbonyl)phenyl)benzo[d]oxazol-2-yl)methyl)acrylamide], the pIC50 (Z138 cells; read-out: MTT Assay IC50 Z-138) was 5.30 to 7.00, the pIC50 (3T3 cells; read-out: MTT Assay IC50 3T3) was < 5.00 and the pIC50 (MS751 cells; [1]) was 5.30 to 7.00.

C[C@@H]1COCCN1C(=O)c1ccc(-c2cc(Cl)c3oc(CNC(=O)/C=C/c4ccc(N)nc4)cc3c2)cc1 [Compound 516, (R,E)-3-(6-aminopyridin-3-yl)-N-((7-chloro-5-(4-(3-methylmorpholine-4-carbonyl)phenyl)benzofuran-2-yl)methyl)acrylamide] was tested, and the pIC50 (Z138 cells; read-out: MTT Assay IC50 Z-138) was 5.30 to 7.00, the pIC50 (3T3 cells; read-out: MTT Assay IC50 3T3) was < 5.00 and the pIC50 (MS751 cells; [1]) was 5.30 to 7.00.

In the case of CN1Cc2cc(-c3cc(Cl)c4oc(CNC(=O)/C=C/c5ccc(N)nc5)cc4c3)ccc2C1=O [Compound 513, (E)-3-(6-aminopyridin-3-yl)-N-((7-chloro-5-(2-methyl-1-oxoisoindolin-5-yl)benzofuran-2-yl)methyl)acrylamide], the pIC50 (Z138 cells; read-out: MTT Assay IC50 Z-138) was 5.30 to 7.00, the pIC50 (3T3 cells; read-out: MTT Assay IC50 3T3) was < 5.00 and the pIC50 (MS751 cells; [1]) was < 5.00.

With O=C(/C=C/c1cccnc1)NCc1cc2cc(-c3ccc(C(=O)N4CCC(F)(F)CC4)cc3F)cc(C(F)(F)F)c2o1 [Compound 684, (E)-N-((5-(4-(4,4-difluoropiperidine-1-carbonyl)-2-fluorophenyl)-7-(trifluoromethyl)benzofuran-2-yl)methyl)-3-(pyridin-3-yl)acrylamide] the pIC50 (Z138 cells; [2]) was 5.30 to 7.00, the pIC50 (3T3 cells; read-out: MTT Assay IC50, 3T3) was < 5.00 and the pIC50 (MS751 cells; [3]) was 5.30 to 7.00.
